According to patent publication US7951990B2, “Method and means for determining fitness in plants” (Bayer Bioscience N.V., priority 2001, dated 2011):

Experiments:
Assay type in all cases: cell-based, Brassica napus
[1] = system: electron flow in the mitochondrial electron transport chain (TTC-reducing capacity of hypocotyl explants); assay: vigour assay (TTC-assay) with acetylsalicylic acid added to the incubation medium; details: for TTC-reducing capacity after treatment versus control condition / TTC-reducing capacity after treatment: 25 mg/l; for TTC-reducing capacity after treatment versus control condition: about 18 hours
[2] = system: superoxide production by the hypocotyl explants; assay: quantification of superoxide production by hypocotyl explants (XTT reduction); details: 25 mg/l, incubation for 18 hours; all four hybrid lines
[3] = system: cytochromal and alternative respiratory pathways

CC(=O)Oc1ccccc1C(=O)O [acetylsalicylic acid]
TTC-reducing capacity after treatment versus control condition ([1]; hybrid line 13 (lowest seed yield)): increased drastically | TTC-reducing capacity after treatment versus control condition ([1]; hybrid line 41 (highest seed yield)): strongest decrease | TTC-reducing capacity after treatment ([1]; parental line DH7 (poor combining ability)): high increase | TTC-reducing capacity after treatment ([1]; parental lines A and B (excellent combining ability)): decreased | TTC-reducing capacity after treatment ([1]; parental lines DH4, DH5 and DH10 (moderate to good combining ability)): no or only a small increase | TTC-reducing capacity ([1]; 50 mg/l, best performing hybrid lines): increased | TTC-reducing capacity ([1]; 50 mg/l, hybrid lines with a less pronounced heterosis): didn't show at 50 mg/l acetylsalicylic acid this increase | TTC-reducing capacity ([1]; 100 mg/l, best performing hybrid lines): decrease again | XTT reduction (superoxides) [2]: lower amounts of XTT were reduced

O=C(NO)c1ccccc1O [SHAM, salicylhydroxamic acid]
influence on the TTC reduction [3]: does not seem to have a major influence
